Among the data in US7202247B2, “1,3-bis-(substituted-phenyl)-2-propyn-1-ones and their use to treat disorders” (AtheroGenics, Inc., priority 2001, dated 2007) are melting point and IC50 values, retold here.

In one data set the test system is VCAM-1. As to the kind of experiment: In vitro VCAM-1 assay: TNF-α stimulated endothelial cells, cell-surface ELISA. In kind it is cell-based. To be noted: primary human aortic (HAEC) or pulmonary (HPAEC) endothelial cells, TNF-α 1 ng/ml, approximately 16 hours exposure. On the procedure:
Cell Culture and compound dosing: Cultured primary human aortic (HAEC) or pulmonary (HPAEC) endothelial cells were obtained from Clonetics, Inc., and were used below passage 9. Cells were seeded in 96 well plates such that they would reach 90–95% confluency by the following day. On the following day the cells were stimulated with TNF-α (1 ng/ml) in the presence or absence of compounds dissolved in DMSO such that the final concentration of DMSO is 0.25% or less. To establish a dose curve for each compound, four concentrations in 2- to 5-fold increments were used. Cells were exposed to TNF-α and compounds for approximately 16 hours. The next day the cells were examined under microscope to score for visual signs of toxicity or cell stress.
Following 16 hr exposure to TNF-α and compound the media was discarded and the cells were washed once with Hanks Balanced Salt Solution (HBSS)/Phosphate buffered saline (PBS) (1:1). Primary antibodies against VCAM-1 (0.25 μg/ml in HBSS/PBS+5% FBS) were added and incubated for 30–60 minutes at 37° C. Cells were washed with HBSS/PBS three times, and secondary antibody Horse Radish Peroxidase (HRP)-conjugated goat anti-mouse IgG (1:500 in HBSS/PBS+5% FBS) were added and incubated for 30 minutes at 37° C. Cells were washed with HBSS/PBS four time and TMB substrate were added and incubated at room temperature in the dark until there was adequate development of blue color. The length of time of incubation was typically 5–15 minutes. 2N sulfuric acid was added to stop the color development and the data was collected by reading the absorbance on a BioRad ELISA plate reader at OD 450 nm. The results are expressed as IC50 values (the concentration (micromolar) of compound required to inhibit 50% of the maximal response of the control sample stimulated by TNF-α only).
(In general: An ELISA detects its analyte on a solid surface through an enzyme-linked reagent.)

The term melting point denotes the temperature of the solid-liquid transition. For orientation: pIC50 means the IC50 on a negative log10 scale, so that one unit is a factor of ten. A high value points to a low IC50.

pIC50: −log10 of the molar value.

For the compound `COC(=O)c1ccc(C(=O)C#Cc2cc(-c3cccs3)c(OC)cc2OC)cc1` [Example 1, 4-[3-(2,4-dimethoxy-5-thiophen-2-yl-phenyl)-propynoyl]-benzoic acid methyl ester], the melting point fell in the range of 198 to 200 °C.

With `COc1cc(OC)c(-c2cccs2)cc1C#CC(=O)c1ccc(C(=O)O)cc1` [Example 2, 4-[3-{2,4-Dimethoxy-5-(thiophen-2-yl)-phenyl}propynoyl]-benzoic Acid], the melting point was 220 °C (dec.). In the data set on VCAM-1, this compound had a pIC50 above 5.30.

`COC(=O)COc1c(OC)cc(C(=O)C#Cc2cc(-c3cccs3)c(OC)cc2OC)cc1OC` [Example 3, {4-[3-(2,4-Dimethoxy-5-thiophen-2-yl-phenyl)-propynoyl]-2,6-dimethoxy-phenoxy}-acetic acid methyl ester]: in the data set on VCAM-1, the pIC50 is above 5.30.

Consider `COc1cc(OC)c(-c2cccs2)cc1C#CC(=O)c1cc(OC)c(OCC(=O)O)c(OC)c1` [Example 4, {4-[3-(2,4-Dimethoxy-5-thiophen-2-yl-phenyl)-propynoyl]-2,6-dimethoxy-phenoxy}-acetic acid], for which, in the data set with VCAM-1, the pIC50 was above 5.30.
